In US12491170B2, “Stable treprostinil prodrugs” (United Therapeutics Corporation, priority 2020, dated 2025):
Where two headings read alike, the source gives them in different places. One block for each compound: values may come before it.

How the values were obtained:
[1] = Stability in liver microsomes, human
Procedure: (§1) Mixed-gender human liver microsomes, male Sprague-Dawley rat liver microsomes, and male Beagle dog liver microsomes were purchased from XenoTech. The reaction mixture, minus NADPH, was prepared as described below. […] An aliquot of the reaction mixture (without cofactor) was equilibrated in a shaking water bath at 37° C. for 5 minutes. The reaction was initiated by the addition of cofactor, and the mixture was incubated in a shaking water bath at 37° C. Aliquots (200 μL) were withdrawn at 0, 10, 20, 30, and 60 minutes. Test article samples were immediately combined with 400 μL of ice-cold acetonitrile (ACN) to terminate the reaction. […] The samples were then mixed and centrifuged to precipitate proteins. Aliquots of the supernatant were removed, diluted 1:1 into distilled water containing internal standard, and analyzed by LC-MS/MS against calibration standards prepared in a matched matrix. All samples were analyzed for the dosed prodrugs as well as the drug, treprostinil. The test article concentration was compared to the concentration at time 0 to determine the percent of test article remaining at each time point. Half-lives and clearance were calculated using GraphPad software, fitting to a single-phase exponential decay equation.
(§2) • Liver Microsomes 0.5 mg/mL • NADPH (cofactor) 1 mM • Potassium Phosphate, pH 7.4 100 mM • Magnesium Chloride 5 mM • Test Article 1 μM

[2] = Stability in cryopreserved hepatocytes, human
Procedure: (§3) Mixed-gender human cryopreserved hepatocytes, male Sprague-Dawley rat cryopreserved hepatocytes, and male Beagle dog cryopreserved hepatocytes were purchased from XenoTech. The hepatocytes were thawed and prepared according to the vendor's instructions, pooled into Krebs Henseleit buffer (KHB, pH 7.4), and kept on ice prior to the experiments. […] The final DMSO content in the incubation mixture was ≤0.1%. […] Aliquots of the test article were withdrawn (n=1) at 0, 15, 30, 60, and 120 minutes. […] Aliquots of 7-HC were withdrawn (n=1) at 0 and 15 minutes. The reaction was immediately terminated by adding two volumes of ice-cold acetonitrile (ACN) to the test article samples and three volumes of ACN containing internal standard to the positive control samples. The samples were then mixed and centrifuged to precipitate proteins. An aliquot of the supernatant was then diluted with water and analyzed by LC-MS/MS against calibration standards prepared in a matched matrix. […] All test article samples were analyzed for the dosed prodrugs as well as the drug, treprostinil. The test article concentration was compared to the concentration at time 0 to determine the percent of test article remaining at each time point. Half-lives and clearance values were calculated using GraphPad software, fitting to a single-phase exponential decay equation.

[3] = Stability in human subcutaneous skin homogenate
Procedure: The pool of skin homogenate was prepared by combining equal volumes of three lots that were tested in the initial skin homogenate lot assessment experiments.
A stock solution of calcein-AM was first prepared at 5 mM in DMSO, followed by a serial dilution into methanol at a concentration of 100 μM. 495 μL of skin homogenate was thawed and warmed to 37° C. A 5 μL aliquot of the 100 μM calcein-AM solution was spiked into the skin homogenate, for a final calcein-AM dosing concentration of 1 μM. After briefly mixing, 150 μL aliquots were removed in triplicate and transferred to 96-well Falcon plates. The plates were placed onto a Thermomixer and maintained at 37° C., with gentle shaking for the duration of the experiment. At each time point (0, 15, 30, 60, and 120 minutes), the plate was removed from the Thermomixer and transferred to a FLUOstar® plate reader, and the formation of calcein (Sigma) was monitored by fluorescence (490/515 nm). Calibration standards of calcein were prepared in distilled water by serial dilutions of a calcein DMSO stock at final concentrations ranging from 1 μM to 1 nM. All samples and standards were read concurrently (Table 13).
For each of the test articles, 495 μL of skin homogenate was added to triplicate centrifuge tubes. To each tube, 5 μL of a 100 μM solution of test article was added, for a final test article dosing concentration of 1 μM. The tubes were placed onto a Thermomixer and maintained at 37° C. with gentle shaking for the duration of the experiment. At each time point (0, 30, 60, and 120 minutes), a 100 μL aliquot was removed from each tube and combined with 200 μL of acetonitrile to stop the stability reaction. The tubes were mixed and centrifuged at 3000 rpm for 10 minutes. Aliquots of supernatant were removed and diluted 1:1 with distilled water containing internal standard (2 μM treprostinil-d4). Calibration standards for the treprostinil analysis were prepared for each test article in a surrogate matrix (supernatant from a mixture of 1:2 human plasma:acetonitrile), at concentrations ranging from 1 μM to 1 nM. Calibration standards were also diluted 1:1 with distilled water containing internal standard. The disappearance of each individual test article was monitored, as well as the formation of treprostinil (Table 14 and Table 15).

[4] = Stability in liver microsomes, rat
Procedure: as §1, §2

[5] = Stability in cryopreserved hepatocytes, dog
Procedure: as §3

[6] = Stability in liver microsomes, dog
Procedure: as §1, §2

[7] = Stability in cryopreserved hepatocytes, rat
Procedure: as §3

[8] = dog
[9] = rat
[10] = Hydrolysis of prodrugs to treprostinil at pH 6, 7, 8 and 40 C; type: physicochemical
Description: Tables 24, 25 and 26 present data for hydrolysis of selected treprostinil prodrugs at pH 6, 7 and 8, respectively, and 40 C.

Hydrolysis to treprostinil, % Area, t = 1 week ([10]; pH 6, 40 C.): 0.00 % Area
Hydrolysis to treprostinil, % Area, t = 2 weeks ([10]; pH 6, 40 C.): 0.00 % Area
Hydrolysis to treprostinil, % Area, t = 3 weeks ([10]; pH 6, 40 C.): 0.00 % Area
Hydrolysis to treprostinil, % Area, t = 1 week ([10]; pH 7, 40 C.): 0.00 % Area
Hydrolysis to treprostinil, % Area, t = 2 weeks ([10]; pH 7, 40 C.): 0.00 % Area
Hydrolysis to treprostinil, % Area, t = 3 weeks ([10]; pH 7, 40 C.): 0.00 % Area
Hydrolysis to treprostinil, % Area, t = 1 week ([10]; pH 8, 40 C.): 0.00 % Area
Hydrolysis to treprostinil, % Area, t = 2 weeks ([10]; pH 8, 40 C.): 0.00 % Area
Hydrolysis to treprostinil, % Area, t = 3 weeks ([10]; pH 8, 40 C.): 0.00 % Area
SMILES: CCCCCC(CCC1C(O)CC2Cc3c(cccc3OCC(=O)O)CC21)OC(=O)c1ccc(O)cc1 (stereo not drawn) [Prodrug LXVIII]

Hydrolysis to treprostinil, % Area, t = 1 week ([10]; pH 6, 40 C.): 0.47 % Area
Hydrolysis to treprostinil, % Area, t = 2 weeks ([10]; pH 6, 40 C.): 1.2 % Area
Hydrolysis to treprostinil, % Area, t = 3 weeks ([10]; pH 6, 40 C.): 1.9 % Area
Hydrolysis to treprostinil, % Area, t = 1 week ([10]; pH 7, 40 C.): 0.05 % Area
Hydrolysis to treprostinil, % Area, t = 2 weeks ([10]; pH 7, 40 C.): 1.0 % Area
Hydrolysis to treprostinil, % Area, t = 3 weeks ([10]; pH 7, 40 C.): 1.5 % Area
Hydrolysis to treprostinil, % Area, t = 1 week ([10]; pH 8, 40 C.): 0.73 % Area
Hydrolysis to treprostinil, % Area, t = 2 weeks ([10]; pH 8, 40 C.): 1.6 % Area
Hydrolysis to treprostinil, % Area, t = 3 weeks ([10]; pH 8, 40 C.): 2.6 % Area
SMILES: CCCCCC(CCC1C(O)CC2Cc3c(cccc3OCC(=O)O)CC21)OC(=O)c1ccc(O)c(O)c1 (stereo not drawn) [Prodrug LXVI]

AUC ([1]; human): 0.00 µmol·min/L
AUC ([2]; human): 0.00 µmol·min/L
AUC [8]: 0.00 µmol·min/L
AUC ([5]; dog): 0.00 µmol·min/L
AUC ([7]; rat): 10.79 µmol·min/L
AUC [9]: 0.39 µmol·min/L
SMILES: CCCCCC(O)CCC1C(O)CC2Cc3c(cccc3OCC(=O)NCC(=O)O)CC21 (stereo not drawn) [VII]

The remaining lines, values behind:

SMILES: CCCCCC(CCC1C(O)CC2Cc3cccc(OCC(=O)O)c3CC21)OC(=O)CCC(=O)N1CCN(C)CC1 (stereo not drawn) [XXXIV]
Trep Concentration 0 min ([1]; Liver Microsomes, Human, 0 min): 0 µM
Trep Concentration 10 min ([1]; Liver Microsomes, Human, 10 min): 0 µM
Trep Concentration 20 min ([1]; Liver Microsomes, Human, 20 min): 0 µM
Trep Concentration 30 min ([1]; Liver Microsomes, Human, 30 min): 0 µM
Trep Concentration 60 min ([1]; Liver Microsomes, Human, 60 min): 0 µM
AUC ([1]; Liver Microsomes, Human, treprostinil 0-60 min): 0.00 µmol·min/L
AUC ([2]; Hepatocytes, Human, AUC of treprostinil concentration 0-120 min): 1.90 µmol·min/L
Trep Concentration (μM) 0 min ([2]; Hepatocytes, Human, treprostinil formed from test article dosed, 0 min): 0 µM
Trep Concentration (μM) 15 min ([2]; Hepatocytes, Human, treprostinil formed from test article dosed, 15 min): 0 µM
Trep Concentration (μM) 30 min ([2]; Hepatocytes, Human, treprostinil formed from test article dosed, 30 min): 0.0107 µM
Trep Concentration (μM) 60 min ([2]; Hepatocytes, Human, treprostinil formed from test article dosed, 60 min): 0.0174 µM
Trep Concentration (μM) 120 min ([2]; Hepatocytes, Human, treprostinil formed from test article dosed, 120 min): 0.0293 µM
Trep Concentration 0 min ([3]; Skin Homogenate, Human, 0 min): 0 µM
Trep Concentration 30 min ([3]; Skin Homogenate, Human, 30 min): 0 µM
Trep Concentration 60 min ([3]; Skin Homogenate, Human, 60 min): 0 µM
Trep Concentration 120 min ([3]; Skin Homogenate, Human, 120 min): 0 µM
AUC ([3]; Skin Homogenate, Human, treprostinil 0-120 min): 0.00 µmol·min/L
Trep Concentration 0 min ([4]; Liver Microsomes, Rat, 0 min): 0 µM
Trep Concentration 10 min ([4]; Liver Microsomes, Rat, 10 min): 0 µM
Trep Concentration 20 min ([4]; Liver Microsomes, Rat, 20 min): 0.0132 µM
Trep Concentration 30 min ([4]; Liver Microsomes, Rat, 30 min): 0.0158 µM
Trep Concentration 60 min ([4]; Liver Microsomes, Rat, 60 min): 0.0224 µM
AUC ([4]; Liver Microsomes, Rat, treprostinil 0-60 min): 0.78 µmol·min/L
AUC ([5]; Hepatocytes, Dog, AUC of treprostinil concentration 0-120 min): 1.30 µmol·min/L
Trep Concentration (μM) 0 min ([5]; Hepatocytes, Dog, treprostinil formed from test article dosed, 0 min): 0 µM
Trep Concentration (μM) 15 min ([5]; Hepatocytes, Dog, treprostinil formed from test article dosed, 15 min): 0 µM
Trep Concentration (μM) 30 min ([5]; Hepatocytes, Dog, treprostinil formed from test article dosed, 30 min): 0.0101 µM
Trep Concentration (μM) 60 min ([5]; Hepatocytes, Dog, treprostinil formed from test article dosed, 60 min): 0.0153 µM
Trep Concentration (μM) 120 min ([5]; Hepatocytes, Dog, treprostinil formed from test article dosed, 120 min): 0.0127 µM
Trep Concentration 0 min ([6]; Liver Microsomes, Dog, 0 min): 0 µM
Trep Concentration 10 min ([6]; Liver Microsomes, Dog, 10 min): 0 µM
Trep Concentration 20 min ([6]; Liver Microsomes, Dog, 20 min): 0 µM
Trep Concentration 30 min ([6]; Liver Microsomes, Dog, 30 min): 0 µM
Trep Concentration 60 min ([6]; Liver Microsomes, Dog, 60 min): 0.0104 µM
AUC ([6]; Liver Microsomes, Dog, treprostinil 0-60 min): 0.16 µmol·min/L
AUC ([7]; Hepatocytes, Rat, AUC of treprostinil concentration 0-120 min): 8.62 µmol·min/L
Trep Concentration (μM) 0 min ([7]; Hepatocytes, Rat, treprostinil formed from test article dosed, 0 min): 0 µM
Trep Concentration (μM) 15 min ([7]; Hepatocytes, Rat, treprostinil formed from test article dosed, 15 min): 0.023 µM
Trep Concentration (μM) 30 min ([7]; Hepatocytes, Rat, treprostinil formed from test article dosed, 30 min): 0.0447 µM
Trep Concentration (μM) 60 min ([7]; Hepatocytes, Rat, treprostinil formed from test article dosed, 60 min): 0.0915 µM
Trep Concentration (μM) 120 min ([7]; Hepatocytes, Rat, treprostinil formed from test article dosed, 120 min): 0.105 µM

SMILES: CCCCCC(CCC1C(O)CC2Cc3c(cccc3OCC(=O)O)CC21)OC(=O)OC (stereo not drawn) [Prodrug IV]
AUC Mono (treprostinil formed) ([1]; human): 16.9 µmol·min/L
Mono AUC (treprostinil formed) ([2]; human): 39.8 µmol·min/L
Mono AUC (treprostinil formed) ([3]; human): 9.59 µmol·min/L
AUC Mono (treprostinil formed) ([4]; rat): 49.7 µmol·min/L
Mono AUC (treprostinil formed) ([5]; dog): 48.0 µmol·min/L
AUC Mono (treprostinil formed) ([6]; dog): 56.0 µmol·min/L
Mono AUC (treprostinil formed) ([7]; rat): 70.0 µmol·min/L

SMILES: CCCCCC(CCC1C(O)CC2Cc3c(cccc3OCC(=O)O)CC21)OC(=O)OC (stereo not drawn) [IV]
AUC ([1]; human): 16.85 µmol·min/L
AUC ([2]; human): 39.76 µmol·min/L
AUC [8]: 55.95 µmol·min/L
AUC ([5]; dog): 47.99 µmol·min/L
AUC ([7]; rat): 70.03 µmol·min/L
AUC [9]: 49.70 µmol·min/L

SMILES: CCCCCC(CCC1C(O)CC2Cc3c(cccc3OCC(=O)O)CC21)OC(=O)c1ccc(OC(F)(F)F)cc1 (stereo not drawn) [LXIII]
Trep Concentration 0 min [1]: 0.12 µM
Trep Concentration 10 min [1]: 0.184 µM
Trep Concentration 20 min [1]: 0.24 µM
Trep Concentration 30 min [1]: 0.268 µM
Trep Concentration 60 min [1]: 0.275 µM
AUC ([1]; human): 14.33 µmol·min/L
AUC [8]: 14.33 µmol·min/L
Trep Concentration 0 min [4]: 0.0393 µM
Trep Concentration 10 min [4]: 0.0539 µM
Trep Concentration 20 min [4]: 0.0653 µM
Trep Concentration 30 min [4]: 0.0747 µM
Trep Concentration 60 min [4]: 0.0824 µM
Trep Concentration 0 min [6]: 0.104 µM
Trep Concentration 10 min [6]: 0.16 µM
Trep Concentration 20 min [6]: 0.222 µM
Trep Concentration 30 min [6]: 0.243 µM
Trep Concentration 60 min [6]: 0.342 µM
AUC [9]: 4.12 µmol·min/L
